Test results from patent publication US4076703A, “Dipeptide derivatives and their production” (Shionogi & Co., Ltd., priority 1974, dated 1978).

Legend:
DS male mice [1] = experiment: Anti-pentylenetetrazol activity; details: for times more potent than diazepam in the anti-pentylenetetrazol activity: relative to diazepam (Compound No. 5); for Anti-pentylenetetrazol activity, ED50: test compound given orally 60 minutes prior to 125 mg/kg s.c. pentylenetetrazol, complete protection against mortality, observed 2 hours
Experimental: This test was measured on a group of 10 DS male mice. […] In this test, the test compound was given orally 60 minutes prior to the administration of pentylenetetrazol. The observation was made for 2 hours after the administration of pentylenetetrazol. The criterion of anticonvulsant activity was determined as being complete protection against mortality. The convulsions were disregarded. Results were shown as ED50 [Goodman, et al.: J. Pharmacol., 108, 168 (1953)].

DS male mice [2] = experiment: Taming activity (inhibition of electroshock-induced fighting); assay type: in vivo; details: for Taming activity ED50: administered 60 minutes prior to experiment, inhibition of fighting responses, 5 pairs of mice; for times more potent than diazepam in the taming activity: relative to diazepam (Compound No. 5)
Experimental: (§1) This test was measured on DS male mice.
These pairs of mice were selected in the morning and used for drug test in the afternoon. The test compound was administered to both mice of the pairs 60 minutes prior to the experiment. Results were obtained as the mean percentage of inhibition of fighting responses in a group of 5 pairs and shown by ED50 [Tedeschi, et al.: J. Pharmacol Exp. Thev., 125, 28-34 (1959)].

DS male mice [3] = experiment: Rotarod performance activity; assay type: in vivo; details: mouse falling from rod (5 rotations per minute) within less than 2 minutes
Experimental: 3. Rotarod performance activity:
as §1
The mouse was put on a scraped rod of wood, 3 cm in diameter, turning at the rate of five rotations per minute. The mice that could remain on the rod for 3 or more minutes in successive trails were selected and placed in a group of 10 mice for each dose. If the mouse fell down from the rod within less than 2 minutes, the test compound was considered to be effective. Results were shown by ED50 [Dunham, et al.: J. Am. Pharm. Assoc., 46, 208 (1957)].

DS male mice [4] = details: oral single dose, observed for 72 hours, Bliss method
Experimental: The test compound was orally administered to DS male mice in different single doses. For each dose, 10 mice were used, their weight ranging from 20 to 23 grams. […] The mortality was calculated by the Bliss method [Bliss: Ann.

[5] = relative to chlordiazepoxide (Compound No. 4)

Compound | times more potent than diazepam in the anti-pentylenetetrazol activity (DS male mice [1]) | Anti-pentylenetetrazol activity, ED50 (DS male mice [1]) | Taming activity ED50 (DS male mice [2]) | times more potent than diazepam in the taming activity (DS male mice [2]) | times more potent than chlordiazepoxide in the anti-pentylenetetrazol activity (DS male mice [1]; [5]) | times more potent than chlordiazepoxide in the taming activity (DS male mice [2]; [5]) | Rotarod performance ED50 (DS male mice [3]) | Acute toxicity LD50 (DS male mice [4])
CN(C(=O)CNC(=O)CN)c1ccc(Cl)cc1C(=O)c1ccccc1Cl.O [Compound No. 2, 2-o-chlorobenzoyl-4-chloro-N-methyl-N^α -glycyl-glycinanilide hydrate] | 2 to 4 times | 0.58 mg/kg | 3.0 mg/kg | 2 to 4 times |  |  |  | 
CN(C(=O)CNC(=O)CN)c1ccc(Cl)cc1C(=O)c1ccccc1 [Compound No. 1, 2-benzoyl-4-chloro-N-methyl-N^α -glycyl-glycinanilide] |  | 1.0 mg/kg |  |  | 2 to 3 times | 2 to 3 times |  | 
CN1C(=O)CN=C(c2ccccc2)c2cc(Cl)ccc21 [Compound No. 5, Diazepam] |  |  |  |  |  |  | 9.03 mg/kg | 
CNC1=Nc2ccc(Cl)cc2C(c2ccccc2)=[N+]([O-])C1 [Compound No. 4, Chlordiazepoxide] |  |  |  |  |  |  | 50.0 mg/kg | 
CN(C(=O)CNC(=O)CN)c1ccc(Cl)cc1C(=O)c1ccccc1F.Cl [Compound No. 3, 2-o-fluorobenzoyl-4-chloro-N-methyl-N^α -glycyl-glycinanilide hydrochloride] | 2 to 4 times | 0.33 mg/kg | 1.6 mg/kg | 2 to 4 times |  |  | 17.0 mg/kg | > 1000 mg/kg
